Source: a melting point compilation (Tetko et al.; mined from patent text by program, amines drawn as free bases though some values may be those of a salt)

melting point [°C]	SMILES
138	COc1cc2c(c(OS(=O)(=O)c3ccc(C)cc3)c1OC)C1=C(CCC1)C(=O)CC2
178 to 184	O=C(CN1CCOCC1)Nc1ccc(-n2nc(C3CC3)cc2C2CC2)cc1
145 to 147	COc1ccc2c(c1)N(CC(=O)O)C(=O)C(N=[N+]=[N-])CC2 (configuration not stated)
75 to 77	COc1ccc(C(C)(C)C)cc1S(=O)(=O)Cl
72 to 78	CCCC(c1ccc(C(=O)O)cc1)[Si]1(C)O[Si](C)(C)O[Si](C)(C)O[Si](C)(C)O1 (configuration not stated)
121 to 124	CC(CC(=O)O)Oc1ccc(Oc2ccccc2)c(NS(C)(=O)=O)c1 (configuration not stated)
90 to 91	O=C(O)CCc1cnoc1-c1ccccc1
168 to 170	CC1CN(Cc2ccccc2)C(=O)C(=C2SC=CS2)C1=O (configuration not stated)
36 to 38	Oc1cc(C(F)(F)F)ccc1I
61 to 65	Nc1cccc(NCCCN2CCOCC2)c1
189 to 193	COc1ccc2c(c1)Cc1c-2[nH]c2ccc(OCc3ccccc3)cc12
170	CCN1CCN(Cc2ccc3c(c2)Cc2c(-c4cccs4)n[nH]c2-3)CC1
112 to 114	CCOC(=O)CC(=O)c1cc2cc(F)c(Cl)cc2nc1Cl
108 to 109	CCn1nc(Cc2ccc([N+](=O)[O-])cc2)oc1=O
135 to 139	CN1CCN(CCCOc2ccc(Nc3ncc4ccc(-c5cccnc5)n4n3)cc2)CC1
182 to 183	CCOC(=O)CN(c1ccccc1)[C@H]1c2cc(C#N)ccc2OC(C)(C)[C@@H]1O
214 to 216	Cn1ccnc1Sc1ccc(Nc2c(C#N)cnc3cc(/C=C/CCN4CCC(N5CCCC5)CC4)ccc23)cc1Cl
135	COc1cc(-c2ccn(C)n2)cc2oc(=O)c(C)c(C)c12
134 to 135	COCCOCOc1c(C(C)(C)C)cc(-c2n[nH]c(=S)s2)cc1C(C)(C)C
51 to 54	CCOC(=O)Nc1c([N+](=O)[O-])cc(C)c(C)c1[N+](=O)[O-]
197	CS(=O)(=O)C(=C1CN(C(c2ccccc2)c2ccccc2)C1)c1cccc(N)c1
64.7 to 66.1	CCOC(=O)NCCS(=O)CC(=O)NCC=CCOc1cccc(CN2CCCCC2)c1 (configuration not stated)
165 to 167	Cc1ccc(S(=O)(=O)N2CCc3c(sc(N)c3C(=O)c3ccccc3)C2)cc1
56 to 57	CCCCCCCCCCCCCCOc1ccc(CC(=O)Cl)cc1OC

melting point [°C]	SMILES
240 to 241	CCOC(=O)C1=CNC2=C(C(=O)Nc3ccccc3)CCN2C1=O
115 to 130	Cc1cccc(S(=O)(=O)OS(=O)(=O)c2cccc(C)c2C)c1C
183 to 184	O=c1[nH]c(=O)n(C2CC(F)C(CO)O2)cc1Cl (configuration not stated)
106	COP(=O)(Cc1ccc(CP(=O)(OC)OC)cc1)OC
123 to 125	O=C1CCc2cccc(Oc3ccccc3Cl)c2O1
114 to 116	CCS(=O)(=O)N1CCNC1=O
203 to 204	Cc1nc(-n2ccc(OCc3ccccc3)cc2=O)[nH]c1C(=O)NCc1cccnc1
102	Cc1ccc(C2=NC(C)(C)C(c3ccncc3)C2)cc1 (configuration not stated)
150 to 151	O=C1Nc2ccccc2SC1CCCCN1CCN(c2ccc(F)cc2)CC1 (configuration not stated)
44 to 46	CC1(C)OC(=O)C(C(=O)C2CC2)C(=O)O1
140 to 145	CCc1ccc(C(=O)CCCCCN2CCC(CNC(=O)c3cc(Cl)c(N)cc3OC)CC2)cc1
149	CC(C)(CO)CNc1nccc(-c2c(-c3ccc(F)cc3)nc3occn23)n1
95 to 96	Oc1ccc(Cc2ccc(OCc3ccccc3)cc2)cc1
145 to 149	O=C(NC1CN(C(C(=O)O)c2ccccc2)C1=O)C(=NO)c1ccccc1 (configuration not stated)
198 to 201	NC(=O)c1cccc(Cn2ccc(OCc3ccc(F)cc3F)c(Br)c2=O)c1
71 to 73	CCCCCCCCOC(=O)C(CC(C)C)NC(=O)c1cc([N+](=O)[O-])cc([N+](=O)[O-])c1 (configuration not stated)
124	Cc1ccc2c(C3CCN(CCN4CCN(C(C)C)C4=O)CC3)cn(-c3ccc(F)cc3)c2c1
268 to 270	COc1ccc(Cc2c(N)nc(N)nc2O)cc1OC
136	Cc1cc(=O)oc2cc(S)ccc12
117 to 119	CC(C)(C)c1cc(CCc2ccccc2NC(=O)NC2CCN(CCc3ccc(F)cc3)CC2)cc(C(C)(C)C)c1O
108	CCOC(=O)CN1CCN(c2ccc(C#N)cc2)CC1=O
147 to 148	O=C1COCC(=O)NCCOCCOCCN1
95 to 98	COC(=O)CN(C)C(=O)c1c(OCc2ccccc2)ccc2c(C(F)(F)F)c(OC)ccc12
81 to 83	CCCCN1CCc2ccccc2C1CNC(=O)c1cc(OC)c(OC)c(OC)c1 (configuration not stated)

melting point [°C]	SMILES
192 to 194	Cc1ccn(-c2ccc(C(=O)O)c(C(F)(F)F)c2)n1
290 to 292	Sc1nc2ccccc2c2nc(-c3ccoc3)nn12
62	C=CCOc1cc(OCc2ccccc2)ccc1O
136 to 139	Cc1nc(-n2cnn(Cc3ccc(F)cc3)c2=O)sc1-c1nn[nH]n1
> 230	N#CC1=C(C2CC(=O)N(Cc3ccccc3)C2)Nc2n[nH]cc2C1c1ccccc1Cl (configuration not stated)
52 to 53	CCCCCc1oc(-c2ccc(Cl)cc2)nc1CC(=O)OCC
80 to 82	CN(CCc1ccccc1)CCc1ccc(Nc2ncc3c(n2)-c2ccccc2C(c2cccc(Br)c2)C3)cc1 (configuration not stated)
133	CCCN(CCC)C(=O)CCCN1CC[C@H](CNC(=O)c2ccc(N)cc2OC)[C@H](OC)C1 (relative stereo)
224 to 225	NC(=O)c1cc(-c2ccnc(Nc3cccc(OC(F)(F)C(F)F)c3)n2)ccn1
171 to 172	COc1cc2c(cc1OC)C(=O)C(C)C(C)O2 (configuration not stated)
52 to 54	COC(=O)C(C)(C)CC(=O)CCc1ccc(Cl)cc1
132 to 134	CCOC(=O)c1cc(C(=O)c2ccccc2Cl)c(-n2c(C)nnc2CNC(=O)Nc2cccc(OC)c2)s1
104	CCOC(=O)Cc1cn2cc(Br)nc(NC)c2n1
236 to 237	Cc1cc(C)c(-n2[nH]c(Nc3ccc(Cl)cc3)cc2=O)c(C)c1N
63	Cc1ccc(C)n1-c1c(Cl)cc(C(F)(F)F)cc1Cl
112 to 113	O=C1CCn2c(CCc3ccccc3)nc3cccc1c32
182 to 184	COC(=O)C1=C(NC(=O)Nc2ccccc2)CSC1
< 45	O=C(O)Cc1ccc(Cn2nc(-c3ccccc3)c(Cc3cc4c(cc3Cl)OCO4)c2C(=O)O)cc1
> 250	COCC1CNc2nc(N)[nH]c(=O)c2N1 (racemic)
177 to 178	CC(=O)NC[C@H]1CN(c2ccc3c(c2)CCS(=O)(=O)C3)C(=O)O1
163 to 164	Cc1c(C2=NCCS2)[nH]c2c(NS(=O)(=O)c3cccs3)cccc12
96.2	CSC(=CC(=O)c1ccccc1C)SC
128 to 130	COc1cc(Nc2c(C#N)cnc3cc(/C=C/CCN4CCOCC4)ccc23)cc(OC)c1OC

SMILES	melting point [°C]
CC(=O)C1CCC2C3CCC4CC(O)C(OCCC#N)CC4(C)C3C(=O)CC12C (configuration not stated)	194 to 196
